# Patent publication US9770026B2, “Substituted pyrimidine compound and uses thereof” (Shenyang Sinochem Agrochemicals R&D Co., Ltd., priority 2012, dated 2017)
# Experiments:
# [1] = tested on: rice blast; test: microbe, parasite or virus in culture; type: cell-based; settings: Pyricularia oryzae; for inhibition at 25 ppm: read-out: inhibition rate against rice blast, 25 ppm, in vitro
# [2] = tested on: cucumber gray mold; test: fungicidal activity in vitro (inhibition rate) against cucumber gray mold; type: cell-based; settings: 25 ppm, in vitro; read-out: inhibition rate against cucumber gray mold
# [3] = tested on: Diamond back moth; test: insecticidal activity against diamond back moth, airbrush spray; type: in vivo; settings: 72 h; for pest or weed control at 10 µg/mL: 10 mg/L; for pest or weed control at 100 µg/mL: 100 mg/L; for pest or weed control at 600 µg/mL: 600 mg/L; for pest or weed control at 100 ppm / pest or weed control at 600 ppm: mortality after 72 hrs, read-out: control (test results against diamond back moth)
# Method in brief: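 Airbrush leaf-disc spray test: both faces of 2 cm cabbage discs received 0.5 ml of test solution at 0.7 kg/cm^2. Solutions were made in acetone:methanol (1:1) and brought to concentration with 0.1% Tween 80 in water. Ten second-instar larvae per disc, triplicates, were held at 25° C and 60˜70% R.H., with mortality recorded at 72 hrs.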
# [4] = tested on: armyworm; test: bioactivity test against armyworm, airbrush spray; type: in vivo; settings: 72 h
# [5] = tested on: Green peach aphids (Myzus Persicae Sulzer); test: bioactivity test against green peach aphid, airbrush foliar spray; type: in vivo; settings: for pest or weed control at 1.25 µg/mL: 1.25 mg/L; for pest or weed control at 1.25 µg/mL / pest or weed control at 2.5 µg/mL / pest or weed control at 5 µg/mL / pest or weed control at 10 µg/mL / pest or weed control at 100 µg/mL / pest or weed control at 600 µg/mL: contrastive test, read-out: Insecticidal activity against peach aphid (%); for pest or weed control at 2.5 µg/mL: 2.5 mg/L; for pest or weed control at 5 µg/mL: 5 mg/L; for pest or weed control at 10 µg/mL: 10 mg/L; for pest or weed control at 100 µg/mL: 100 mg/L; for pest or weed control at 600 µg/mL: 600 mg/L
# Method in brief: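 Aphids (15-30 per cabbage leaf disc) on moist filter paper were airbrush-sprayed at 10 psi, 0.5 mL, with compound from acetone:methanol (1:1) diluted in water with 0.1% tween 80. Held at 25±1 C, 60±5% RH; survivors counted after 48 hrs to give death rates.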
# [6] = tested on: carmine spider mite; test: bioactivity test against carmine spider mite, airbrush spray; type: in vivo; settings: for pest or weed control at 100 µg/mL: 100 mg/L; for pest or weed control at 600 µg/mL: 600 mg/L
# Method in brief: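 Broadbean seedlings infested with adult mites were sprayed with compound (acetone/methanol stock diluted in 0.1% Tween 80 water) by airbrush at 0.7 kg/cm^2, 0.5 ml. Three replicates were run. Mortality was scored after 72 hrs.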
# [7] = tested on: corn rust; test: protectant activity in vivo against corn rust; settings: Zea mays, 168 h; for pest or weed control at 100 ppm: read-out: protectant activity against corn rust in vivo, 100 ppm; for pest or weed control at 25 ppm: read-out: protectant activity against corn rust in vivo, 25 ppm; for pest or weed control at 400 ppm: read-out: protectant activity against corn rust in vivo, 400 ppm
# [8] = tested on: wheat powdery mildew; test: protectant activity in vivo against wheat powdery mildew; settings: Triticum aestivum, 168 h; for pest or weed control at 400 ppm: read-out: protectant activity against wheat powdery mildew in vivo, 400 ppm; for pest or weed control at 100 ppm: read-out: protectant activity against wheat powdery mildew in vivo, 100 ppm
# [9] = tested on: cucumber downy mildew; test: protectant activity in vivo against cucumber downy mildew; settings: Cucumis sativus, 168 h; for pest or weed control at 3.125 µg/mL: read-out: control effect against cucumber downy mildew (%), 3.125 mg/L; for pest or weed control at 3.125 µg/mL / pest or weed control at 6.25 µg/mL / pest or weed control at 12.5 µg/mL / pest or weed control at 25 µg/mL / pest or weed control at 50 µg/mL / pest or weed control at 100 µg/mL / pest or weed control at 400 µg/mL: protectant activity; for pest or weed control at 6.25 µg/mL: read-out: control effect against cucumber downy mildew (%), 6.25 mg/L; for pest or weed control at 12.5 µg/mL: read-out: control effect against cucumber downy mildew (%), 12.5 mg/L; for pest or weed control at 25 µg/mL: read-out: control effect against cucumber downy mildew (%), 25 mg/L; for pest or weed control at 50 µg/mL: read-out: control effect against cucumber downy mildew (%), 50 mg/L; for pest or weed control at 100 µg/mL: read-out: control effect against cucumber downy mildew (%), 100 mg/L; for pest or weed control at 400 µg/mL: read-out: control effect against cucumber downy mildew (%), 400 mg/L; for pest or weed control at 25 ppm: read-out: protectant activity against cucumber downy mildew in vivo, 25 ppm; for pest or weed control at 50 ppm: read-out: protectant activity against cucumber downy mildew in vivo, 50 ppm; for pest or weed control at 100 ppm: read-out: protectant activity against cucumber downy mildew in vivo, 100 ppm; for pest or weed control at 400 ppm: read-out: protectant activity against cucumber downy mildew in vivo, 400 ppm
# [10] = Myzus persicae, foliar, 48 h, death rate after 48 hrs
# [11] = Tetranychus cinnabarinus, 72 h, mortality after 72 hrs
# [12] = Tetranychus cinnabarinus, 72 h, contrastive test, read-out: Insecticidal activity against carmine spider mite (% )
compound,measurement,setting,value
CCc1ncnc(NCCc2ccc(Oc3ccc(Cl)nn3)cc2)c1Cl [Compound I-3309],inhibition at 25 ppm,[1],80 to 99%
same,inhibition at 25 ppm,[2],80 to 99%
same,pest or weed control at 10 µg/mL,[3],60%
same,pest or weed control at 100 µg/mL,[3],100%
same,pest or weed control at 600 µg/mL,[3],100%
same,pest or weed control at 100 ppm,[3],100%
same,pest or weed control at 600 ppm,[3],100%
same,pest or weed control at 10 µg/mL,"[4]; 10 mg/L, read-out: Insecticidal activity against armyworm (%)",60%
same,pest or weed control at 100 µg/mL,"[4]; 100 mg/L, read-out: Insecticidal activity against armyworm (%)",100%
same,pest or weed control at 600 µg/mL,"[4]; 600 mg/L, read-out: Insecticidal activity against armyworm (%)",100%
same,pest or weed control at 100 ppm,"[4]; 100 ppm, mortality after 72 h",100%
same,pest or weed control at 600 ppm,[4]; mortality after 72 h,100%
same,pest or weed control at 1.25 µg/mL,"[5]; Myzus persicae, foliar, 48 h",48%
same,pest or weed control at 2.5 µg/mL,"[5]; Myzus persicae, foliar, 48 h",96%
same,pest or weed control at 5 µg/mL,"[5]; Myzus persicae, foliar, 48 h",100%
same,pest or weed control at 10 µg/mL,"[5]; Myzus persicae, foliar, 48 h",100%
same,pest or weed control at 100 µg/mL,"[5]; Myzus persicae, foliar, 48 h",100%
same,pest or weed control at 600 µg/mL,"[5]; Myzus persicae, foliar, 48 h",100%
same,pest or weed control at 10 ppm,[5]; [10],100%
same,pest or weed control at 100 ppm,[5]; [10],100%
same,pest or weed control at 600 ppm,[5]; [10],100%
same,pest or weed control at 100 ppm,[6]; [11],80 to 99%
same,pest or weed control at 600 ppm,[6]; [11],80 to 99%
same,pest or weed control at 100 ppm,[7],80 to 99%
same,pest or weed control at 400 ppm,[8],100%
same,pest or weed control at 3.125 µg/mL,[9],50%
same,pest or weed control at 6.25 µg/mL,[9],60%
same,pest or weed control at 12.5 µg/mL,[9],70%
same,pest or weed control at 25 µg/mL,[9],90%
same,pest or weed control at 50 µg/mL,[9],90%
same,pest or weed control at 100 µg/mL,[9],90%
same,pest or weed control at 400 µg/mL,[9],100%
same,pest or weed control at 25 ppm,[9],80 to 99%
same,pest or weed control at 50 ppm,[9],80 to 99%
same,pest or weed control at 100 ppm,[9],80 to 99%
same,pest or weed control at 400 ppm,[9],100%
CCc1ncnc(NCCc2ccc(Oc3ccc(C(F)(F)F)cc3)cc2)c1Cl [II-347],inhibition at 25 ppm,[1],80 to 99%
same,inhibition at 25 ppm,[2],80 to 99%
same,pest or weed control at 10 µg/mL,[3],65%
same,pest or weed control at 100 µg/mL,[3],70%
same,pest or weed control at 600 µg/mL,[3],100%
same,pest or weed control at 600 ppm,[3],100%
same,pest or weed control at 600 ppm,[4]; mortality after 72 h,100%
same,control (test results against green peach aphid),"[5]; 2.5 ppm, death rate after 48 hrs",100%
same,pest or weed control at 1.25 µg/mL,"[5]; Myzus persicae, foliar, 48 h",81%
same,pest or weed control at 2.5 µg/mL,"[5]; Myzus persicae, foliar, 48 h",100%
same,pest or weed control at 5 µg/mL,"[5]; Myzus persicae, foliar, 48 h",100%
same,pest or weed control at 10 µg/mL,"[5]; Myzus persicae, foliar, 48 h",100%
same,pest or weed control at 100 µg/mL,"[5]; Myzus persicae, foliar, 48 h",100%
same,pest or weed control at 600 µg/mL,"[5]; Myzus persicae, foliar, 48 h",100%
same,pest or weed control at 5 ppm,"[5]; Myzus persicae, foliar, 48 h, 5 ppm, death rate after 48 hrs",100%
same,pest or weed control at 10 ppm,[5]; [10],100%
same,pest or weed control at 100 ppm,[5]; [10],100%
same,pest or weed control at 600 ppm,[5]; [10],100%
same,Insecticidal activity against carmine spider mite (% ),[6]; 2.5 mg/L,75%
same,Insecticidal activity against carmine spider mite (% ),[6]; 5 mg/L,90%
same,pest or weed control at 10 µg/mL,"[6]; Tetranychus cinnabarinus, 72 h, 10 mg/L, contrastive test, read-out: Insecticidal activity against carmine spider mite (% )",100%
same,pest or weed control at 100 µg/mL,[6]; [12],100%
same,pest or weed control at 600 µg/mL,[6]; [12],100%
same,pest or weed control at 10 ppm,"[6]; Tetranychus cinnabarinus, 72 h, 10 ppm, mortality after 72 hrs",100%
same,pest or weed control at 100 ppm,[6]; [11],100%
same,pest or weed control at 600 ppm,[6]; [11],100%
same,pest or weed control at 6.25 ppm,"[7]; read-out: protectant activity against corn rust in vivo, 6.25 ppm",80 to 99%
same,pest or weed control at 25 ppm,[7],80 to 99%
same,pest or weed control at 100 ppm,[7],100%
same,pest or weed control at 400 ppm,[7],100%
same,pest or weed control at 25 ppm,"[8]; read-out: protectant activity against wheat powdery mildew in vivo, 25 ppm",100%
same,pest or weed control at 100 ppm,[8],100%
same,pest or weed control at 400 ppm,[8],100%
same,pest or weed control at 100 ppm,[9],80 to 99%
same,pest or weed control at 400 ppm,[9],100%
Cc1ncnc(NCCc2ccc(Oc3ccc(Cl)cc3)nc2)c1Cl [III-7],inhibition at 0.1 ppm,"[1]; read-out: inhibition rate against rice blast, 0.1 ppm, in vitro",100%
same,inhibition at 0.3 ppm,"[1]; read-out: inhibition rate against rice blast, 0.3 ppm, in vitro",100%
same,inhibition at 0.9 ppm,"[1]; read-out: inhibition rate against rice blast, 0.9 ppm, in vitro",100%
same,inhibition at 2.8 ppm,"[1]; read-out: inhibition rate against rice blast, 2.8 ppm, in vitro",100%
same,inhibition at 8.3 ppm,"[1]; read-out: inhibition rate against rice blast, 8.3 ppm, in vitro",100%
same,inhibition at 25 ppm,[1],100%
same,inhibition at 25 ppm,[2],80 to 99%
same,pest or weed control at 100 ppm,[3],80 to 99%
same,pest or weed control at 600 ppm,[3],100%
same,pest or weed control at 600 ppm,[4]; mortality after 72 h,100%
same,pest or weed control at 5 µg/mL,"[5]; Myzus persicae, foliar, 48 h",88%
same,pest or weed control at 10 µg/mL,"[5]; Myzus persicae, foliar, 48 h",90%
same,pest or weed control at 100 µg/mL,"[5]; Myzus persicae, foliar, 48 h",100%
same,pest or weed control at 600 µg/mL,"[5]; Myzus persicae, foliar, 48 h",100%
same,pest or weed control at 10 ppm,[5]; [10],80 to 99%
same,pest or weed control at 100 ppm,[5]; [10],100%
same,pest or weed control at 600 ppm,[5]; [10],100%
same,pest or weed control at 100 µg/mL,[6]; [12],100%
same,pest or weed control at 600 µg/mL,[6]; [12],100%
same,pest or weed control at 100 ppm,[6]; [11],100%
same,pest or weed control at 600 ppm,[6]; [11],100%
same,pest or weed control at 25 µg/mL,"[7]; read-out: control effect against corn rust (%), 25 mg/L, protectant activity",100%
same,pest or weed control at 100 µg/mL,"[7]; read-out: control effect against corn rust (%), 100 mg/L, protectant activity",100%
same,pest or weed control at 400 µg/mL,"[7]; read-out: control effect against corn rust (%), 400 mg/L, protectant activity",100%
same,pest or weed control at 25 ppm,[7],100%
same,pest or weed control at 100 ppm,[7],100%
same,pest or weed control at 400 ppm,[7],100%
same,pest or weed control at 100 ppm,[8],80 to 99%
same,pest or weed control at 400 ppm,[8],100%
same,pest or weed control at 3.125 µg/mL,[9],100%
same,pest or weed control at 6.25 µg/mL,[9],100%
same,pest or weed control at 12.5 µg/mL,[9],100%
same,pest or weed control at 25 µg/mL,[9],100%
same,pest or weed control at 50 µg/mL,[9],100%
same,pest or weed control at 100 µg/mL,[9],100%
same,pest or weed control at 400 µg/mL,[9],100%
same,pest or weed control at 6.25 ppm,"[9]; read-out: protectant activity against cucumber downy mildew in vivo, 6.25 ppm",100%
same,pest or weed control at 12.5 ppm,"[9]; read-out: protectant activity against cucumber downy mildew in vivo, 12.5 ppm",100%
same,pest or weed control at 25 ppm,[9],100%
same,pest or weed control at 50 ppm,[9],100%
same,pest or weed control at 100 ppm,[9],100%
same,pest or weed control at 400 ppm,[9],100%
